How the values were obtained:
Assay type in all cases: physicochemical
[1] = Long-term/accelerated stability study; conditions: for physical and chemical stability (conclusion): 25° C./60 RH and 40° C./75 RH, 6 months
Method: The crystal form A of hydrochloride, the crystal form A of methanesulfonate, and the crystal form α of acetate were placed at 25° C./60% RH and 40° C./75% RH to investigate the stability, and the results are shown in Tables 10, 11, and 12 below.

[2] = Stability of crystal form, influencing factor experiment; conditions: for physical and chemical stability (conclusion): illumination, 40° C. and 60° C., humidity 75% and 92.5%
Method: The crystal form A of hydrochloride, the crystal form A of methanesulfonate, and the crystal form α of the acetate were placed flat and left open. The stability of the samples was investigated under conditions of illumination (4500 Lux), high temperature (40° C., 60° C.), and high humidity (RH 75%, RH 92.5%), and the sampling investigation period was 30 days.

[3] = Hygroscopicity study (dynamic vapor sorption); conditions: DVS, 25° C.; for Crystal form after hygroscopicity test: two cycles
Method: DVS is dynamic vapor sorption: The detection was carried out using SMS DVS Advantage at 25° C. with a humidity change of 50%-95%-0%-95%-50% in steps of 10% (the last step was 5%) (the specific range of humidity was subject to the corresponding pattern, and most methods were listed here), and the judgment standard was that dm/dt was not greater than 0.002%.
Using Surface Measurement Systems advantage 2, starting at a humidity of 50% at 25° C., the humidity range was 0%-95%, the step was 10%, the judgment standard was that the mass change dM/dT of each gradient was less than 0.002%, the running time TMAX of each humidity gradient was 360 min, with two cycles, and the specific results are shown in Table 8.

## CC(C)NCC(C(=O)N1C2CCC1CN(c1ncnc3c1C(C)(C)C(=O)N3)C2)c1ccc(Cl)cc1.Cl (stereo not drawn) [Crystal form A of hydrochloride]
[1]; 25° C./60% RH
  Crystal form: Untransformed
  Purity % 1 month: 99.3%
  Purity % 2 month: 99.3%
  Purity % 3 month: 99.2%
  Purity % 6 month: 99.3%
  Purity % Onset: 99.3%
[1]
  physical and chemical stability (conclusion): good physical and chemical stability
[1]; 40° C./75% RH
  Crystal form: Untransformed
  Purity % 1 month: 99.3%
  Purity % 2 month: 99.3%
  Purity % 3 month: 99.2%
  Purity % 6 month: 99.3%
  Purity % Onset: 99.3%
[2]; 40° C., 5 days, open
  Crystal form: Untransformed
  Purity %: 99.3%
[2]; 40° C., 10 days, open
  Crystal form: Untransformed
  Purity %: 99.3%
[2]; 40° C., 30 days, open
  Crystal form: Untransformed
  Purity %: 99.3%
[2]; 60° C., 5 days, open
  Crystal form: Untransformed
  Purity %: 99.3%
[2]; 60° C., 10 days, open
  Crystal form: Untransformed
  Purity %: 99.3%
[2]; 60° C., 30 days, open
  Crystal form: Untransformed
  Purity %: 99.2%
[2]; 75% RH, 5 days, open
  Crystal form: Untransformed
  Purity %: 99.3%
[2]; 75% RH, 10 days, open
  Crystal form: Untransformed
  Purity %: 99.3%
[2]; 75% RH, 30 days, open
  Crystal form: Untransformed
  Purity %: 99.4%
[2]; 92.5% RH, 5 days, open
  Crystal form: Untransformed
  Purity %: 99.3%
[2]; 92.5% RH, 10 days, open
  Crystal form: Untransformed
  Purity %: 99.3%
[2]; 92.5% RH, 30 days, open
  Crystal form: Untransformed
  Purity %: 99.3%
[2]; 4500 Lux, 5 days, open
  Crystal form: Untransformed
  Purity %: 99.3%
[2]; 4500 Lux, 10 days, open
  Crystal form: Untransformed
  Purity %: 99.3%
[2]; 4500 Lux, 30 days, open
  Crystal form: Untransformed
  Purity %: 99.3%
[2]; Onset, 0 days
  Purity %: 99.3%
[2]; 30 days
  physical and chemical stability (conclusion): good physical and chemical stability
[3]
  mass change 0% RH-80.0% RH: 0.60%
  mass change 0.0% RH-95.0% RH: 0.79%
  Crystal form after hygroscopicity test: Untransformed

## CC(C)NCC(C(=O)N1C2CCC1CN(c1ncnc3c1C(C)(C)C(=O)N3)C2)c1ccc(Cl)cc1.CS(=O)(=O)O (stereo not drawn) [Crystal form A of methanesulfonate]
[1]; 25° C./60% RH
  Crystal form: Untransformed
  Purity % 1 month: 99.9%
  Purity % 2 month: 99.8%
  Purity % 3 month: 99.8%
  Purity % 6 month: 99.9%
  Purity % Onset: 99.9%
[1]
  physical and chemical stability (conclusion): good physical and chemical stability
[1]; 40° C./75% RH
  Crystal form: Untransformed
  Purity % 1 month: 99.9%
  Purity % 2 month: 99.8%
  Purity % 3 month: 99.8%
  Purity % 6 month: 99.8%
  Purity % Onset: 99.9%
[2]; 40° C., 5 days, open
  Crystal form: Untransformed
  Purity %: 99.9%
[2]; 40° C., 10 days, open
  Crystal form: Untransformed
  Purity %: 99.9%
[2]; 40° C., 30 days, open
  Crystal form: Untransformed
  Purity %: 99.9%
[2]; 60° C., 5 days, open
  Crystal form: Untransformed
  Purity %: 99.9%
[2]; 60° C., 10 days, open
  Crystal form: Untransformed
  Purity %: 99.9%
[2]; 60° C., 30 days, open
  Crystal form: Untransformed
  Purity %: 99.9%
[2]; 75% RH, 5 days, open
  Crystal form: Untransformed
  Purity %: 99.9%
[2]; 75% RH, 10 days, open
  Crystal form: Untransformed
  Purity %: 99.9%
[2]; 75% RH, 30 days, open
  Crystal form: Untransformed
  Purity %: 99.9%
[2]; 92.5% RH, 5 days, open
  Crystal form: Untransformed
  Purity %: 99.9%
[2]; 92.5% RH, 10 days, open
  Crystal form: Untransformed
  Purity %: 99.9%
[2]; 92.5% RH, 30 days, open
  Crystal form: Untransformed
  Purity %: 99.9%
[2]; 4500 Lux, 5 days, open
  Crystal form: Untransformed
  Purity %: 99.9%
[2]; 4500 Lux, 10 days, open
  Crystal form: Untransformed
  Purity %: 99.9%
[2]; 4500 Lux, 30 days, open
  Crystal form: Untransformed
  Purity %: 99.9%
[2]; Onset, 0 days
  Purity %: 99.9%
[2]; 30 days
  physical and chemical stability (conclusion): good physical and chemical stability
[3]
  mass change 0% RH-80.0% RH: 0.31%
  mass change 0.0% RH-95.0% RH: 0.43%
  Crystal form after hygroscopicity test: Untransformed

## CC(=O)O.CC(C)NCC(C(=O)N1C2CCC1CN(c1ncnc3c1C(C)(C)C(=O)N3)C2)c1ccc(Cl)cc1 (stereo not drawn) [Crystal form α of acetate]
[1]; 25° C./60% RH
  Crystal form: Untransformed
  Purity % 1 month: 99.7%
  Purity % 2 month: 99.7%
  Purity % 3 month: 99.7%
  Purity % 6 month: 99.7%
  Purity % Onset: 99.7%
[1]
  physical and chemical stability (conclusion): good physical and chemical stability
[1]; 40° C./75% RH
  Crystal form: Untransformed
  Purity % 1 month: 99.7%
  Purity % 2 month: 99.6%
  Purity % 3 month: 99.6%
  Purity % 6 month: 99.5%
  Purity % Onset: 99.7%
[2]; 40° C., 5 days, open
  Crystal form: Untransformed
  Purity %: 99.6%
[2]; 40° C., 10 days, open
  Crystal form: Untransformed
  Purity %: 99.6%
[2]; 40° C., 30 days, open
  Crystal form: Untransformed
  Purity %: 99.0%
[2]; 60° C., 5 days, open
  Crystal form: Untransformed
  Purity %: 99.6%
[2]; 60° C., 10 days, open
  Crystal form: Untransformed
  Purity %: 99.5%
[2]; 60° C., 30 days, open
  Crystal form: Untransformed
  Purity %: 98.8%
[2]; 75% RH, 5 days, open
  Crystal form: Untransformed
  Purity %: 99.7%
[2]; 75% RH, 10 days, open
  Crystal form: Untransformed
  Purity %: 99.7%
[2]; 75% RH, 30 days, open
  Crystal form: Untransformed
  Purity %: 99.7%
[2]; 92.5% RH, 5 days, open
  Crystal form: Untransformed
  Purity %: 99.7%
[2]; 92.5% RH, 10 days, open
  Crystal form: Untransformed
  Purity %: 99.7%
[2]; 92.5% RH, 30 days, open
  Crystal form: Untransformed
  Purity %: 99.7%
[2]; 4500 Lux, 5 days, open
  Crystal form: Untransformed
  Purity %: 99.7%
[2]; 4500 Lux, 10 days, open
  Crystal form: Untransformed
  Purity %: 99.7%
[2]; 4500 Lux, 30 days, open
  Crystal form: Untransformed
  Purity %: 99.6%
[2]; Onset, 0 days
  Purity %: 99.7%
[2]; 30 days
  physical and chemical stability (conclusion): good physical stability and good chemical stability under high humidity and illumination conditions
[3]
  mass change 0% RH-80.0% RH: 0.50%
  mass change 0.0% RH-95.0% RH: 0.66%
  Crystal form after hygroscopicity test: Untransformed
